Results from PubChem BioAssay (NCI).
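Results reflect a 48-hour exposure of cells in 96-well plates to compound at five concentrations. GI50 is the concentration that inhibits growth by half. At the TGI there is no net growth.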

Legend:
Assay in all cases: NCI anticancer screen, dose series, 48 h
SNB-75 CNS = tested on: SNB-75 CNS
M14 melanoma = tested on: M14 melanoma
SK-MEL-2 melanoma = tested on: SK-MEL-2 melanoma
RXF 393 renal = tested on: RXF 393 renal
SW-620 colon = tested on: SW-620 colon
CAKI-1 renal = tested on: CAKI-1 renal
SNB-19 CNS = tested on: SNB-19 CNS
MDA-N = tested on: MDA-N
SK-MEL-5 melanoma = tested on: SK-MEL-5 melanoma

| Compound | TGI (SNB-75 CNS) | TGI (M14 melanoma) | TGI (SK-MEL-2 melanoma) | TGI (RXF 393 renal) | TGI (SW-620 colon) | TGI (CAKI-1 renal) | TGI (SNB-19 CNS) | TGI (MDA-N) | TGI (SK-MEL-5 melanoma) | GI50 (SNB-75 CNS) | GI50 (SK-MEL-2 melanoma) | GI50 (SW-620 colon) | GI50 (CAKI-1 renal) | GI50 (SNB-19 CNS) | GI50 (SK-MEL-5 melanoma) | GI50 (M14 melanoma) | GI50 (RXF 393 renal) |
| --- | --- | --- | --- | --- | --- | --- | --- | --- | --- | --- | --- | --- | --- | --- | --- | --- | --- |
| CC(C)(C)c1cc(OCc2nn3c(Cc4ccccc4)nnc3s2)c(Cl)cc1OCc1nn2c(Cc3ccccc3)nnc2s1 | > 100 µM | > 100 µM | > 100 µM | > 100 µM | > 100 µM | > 100 µM | > 100 µM | > 100 µM | 26.6 µM |  |  |  |  |  |  |  |  |
| Cc1oc2c(c1C)S(=O)(=O)C(C#N)=C(N(C)C)N2 | > 100 µM | > 100 µM | > 100 µM |  | > 100 µM | > 100 µM | > 100 µM | > 100 µM | > 100 µM |  |  |  |  |  |  |  |  |
| CC(=O)Oc1c(N2CCCCC2)c(C(=O)c2ccccc2)c(O)c2ccn(N(C)C)c12 | 32.5 µM | 53.7 µM | 54.6 µM | 48.4 µM | 35.1 µM | 33.8 µM | 64.3 µM | 35.3 µM | 29.7 µM |  |  |  |  |  |  |  |  |
| Nc1nc(Cl)cc(NC2(CO)CCC2)n1 | > 100 µM |  | > 100 µM | > 100 µM | > 100 µM | > 100 µM |  | > 100 µM | > 100 µM |  |  |  |  |  |  |  |  |
| Cc1nc(C)c(N2CCNCC2)c(=O)[nH]1 | > 100 µM | > 100 µM |  | > 100 µM | > 100 µM | > 100 µM | > 100 µM | > 100 µM | > 100 µM |  |  |  |  |  |  |  |  |
| CC(C)=CCC/C(C)=C/COc1c2ccoc2cc2oc(=O)ccc12 |  | 89.1 µM | 38.3 µM |  | > 100 µM | > 100 µM | > 100 µM | > 100 µM | 28.6 µM |  |  |  |  |  |  |  |  |
| CCOC(=O)NC(OC)(C(F)(F)F)C(F)(F)F | > 100 µM | > 100 µM |  | > 100 µM | > 100 µM | > 100 µM | > 100 µM | > 100 µM | > 100 µM |  |  |  |  |  |  |  |  |
| COc1ccc(C2C(C#N)=C(S)N(C3OC(COC(C)=O)C(OC(C)=O)C(OC(C)=O)C3OC(C)=O)C(c3ccccc3)=C2C(C)=O)cc1 (stereo not drawn) | > 100 µM | > 100 µM | > 100 µM | > 100 µM |  | > 100 µM | > 100 µM | > 100 µM | > 100 µM |  |  |  |  |  |  |  |  |
| Cn1cc(-c2ccc3cc(-c4ccc(CC(=O)Nc5cc(C(C)(C)C)on5)cc4)cnc3c2)cn1 | 3.03 µM |  | 12.4 µM |  | 3.99 µM | 3.45 µM | 8.68 µM |  | 6.55 µM | 1.11 µM | 0.922 µM | 1540 nM | 426 nM | 2.18 µM | 2.31 µM |  |  |
| COC1=CC(=O)CC(C)C12Oc1c(Cl)c(OC)cc(OC)c1C2=O (stereo not drawn) | 28.5 µM | > 65.7 µM | > 100 µM | 43.3 µM | > 100 µM | 84.9 µM | > 100 µM |  | > 100 µM |  |  |  |  |  |  |  |  |
| Cc1cc(S(=O)(=O)Nc2nc3ccccc3nc2-c2ccc(Cl)cc2)c(S)cc1Cl |  | 39.5 µM | 29.2 µM | 46.6 µM |  | 36.8 µM | 37 µM | 35.6 µM | 27 µM |  |  |  |  |  |  |  |  |
| Nc1[nH]nc2nc3ccccc3nc12 | > 100 µM |  | > 100 µM | 87.9 µM | > 100 µM | > 100 µM | > 100 µM | > 100 µM | > 100 µM |  |  |  |  |  |  |  |  |
| NC(CSSCC(N)=NCC12CC3CC(CC(C3)C1)C2)=NCC12CC3CC(CC(C3)C1)C2 | 45.2 µM | 50.2 µM | 55.1 µM | > 100 µM | 41.6 µM | 36.4 µM | 41.5 µM |  | 36.5 µM |  |  |  |  |  |  |  |  |
| CC1(C)CCC(C)(C)C1C(=O)NC(O)C(=O)O (stereo not drawn) | > 100 µM | > 100 µM | > 100 µM |  | > 100 µM |  | > 100 µM | > 100 µM | > 100 µM |  |  |  |  |  |  |  |  |
| CC(C)(C)OC(=O)CN1CCNCCN(CC(=O)OC(C)(C)C)CCNCC1 | > 100 µM |  | > 100 µM | > 100 µM | > 100 µM | > 100 µM | > 100 µM | > 100 µM | > 100 µM |  |  |  |  |  |  |  |  |
| N=c1c2c(=S)n(-c3ccccc3)c(=S)n(-c3ccccc3)c2nc(SCCN2CCCC2)n1-c1ccccc1 | 8.29 µM | 3.44 µM | 13.9 µM | 2.94 µM |  | 3.11 µM | 31.6 µM | 4.36 µM | 12.1 µM |  |  |  |  |  |  |  |  |
| COC1=CC2(CC(OC)=C1OC)OC21COc2ccccc2C1=O (stereo not drawn) | > 100 µM | > 100 µM | > 100 µM | > 100 µM | > 100 µM | > 100 µM | > 100 µM |  | > 100 µM |  |  |  |  |  |  |  |  |
| CC(=O)Oc1c(-c2ccccc2)sc2ccccc12 | 34.8 µM |  | 31.4 µM | 28.1 µM | > 100 µM | 22.8 µM | > 100 µM |  | 44.5 µM |  |  |  |  |  |  |  |  |
| Cc1ccc(C2=C(C#N)C(N)OC3=C2COc2ccccc23)cc1 (stereo not drawn) |  | > 100 µM | > 100 µM |  | > 100 µM |  | 41.9 µM | > 100 µM | > 100 µM |  |  |  |  |  |  |  |  |
| C=C(C)COC1CCCCO1 (stereo not drawn) | > 100 µM | > 100 µM | > 100 µM |  | > 100 µM | > 100 µM | > 100 µM | > 100 µM | > 100 µM |  |  |  |  |  |  |  |  |
| O=C(NC(=O)c1cc(-c2ccccc2)n[nH]1)c1ccccc1 | > 100 µM | > 100 µM | > 100 µM | > 100 µM | > 100 µM | > 100 µM |  | > 100 µM | > 100 µM |  |  |  |  |  |  |  |  |
| c1csc(-c2ccsc2-c2cccs2)c1 | > 100 µM | > 100 µM |  | > 100 µM | > 100 µM | > 100 µM |  | > 100 µM | > 100 µM |  |  |  |  |  |  |  |  |
| COC(=O)c1c(C#N)c(N)nc2c1CCC2 |  | > 100 µM | > 100 µM | > 100 µM | > 100 µM | > 100 µM | > 100 µM | > 100 µM | > 100 µM |  |  |  |  |  |  |  |  |
| COc1cc(OC)cc(-c2n/c(=C\c3c(O)[nH]c4ccc(OC)cc34)cc3c2=Nc2ccccc2-3)c1 | 34.3 µM | 4.18 µM | 37.3 µM | 27.2 µM | 22.4 µM | > 100 µM | 27.7 µM |  | 25.2 µM | 18.5 µM | 20.8 µM | 3920 nM | > 100000 nM | 5.82 µM | 12.1 µM | 2240 nM | 5.65 µM |
